Common to all, as to assay: NCI anticancer screen, dose series, 48 h
Assay [1] concerns MALME-3M melanoma.
Assay [2] concerns MCF7 breast.
Assay [3] has as its system NCI-H460 lung.
Assay [4] relates to CAKI-1 renal.
Assay [5] concerns UACC-257 melanoma.
In assay [6] the test system is NCI-H226 lung.
The test system of assay [7] is HS 578T breast.
For assay [8], the system named is TK-10 renal.
The test system of assay [9] is A498 renal.
Assay [10] concerns MDA-MB-435.

“And” between values parts separate entries of the source, which are not always exact repeats. Equal values may be shown once.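 Where inhibition never reached the appropriate level, the endpoint shown equals the highest concentration tested. Otherwise, values were interpolated linearly from a five-concentration, 48-hour dose response in 96-well plates. The concentration for 50% growth inhibition is given as GI50. TGI: concentration producing complete growth inhibition.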

On to `Nc1nc(=O)n(C2CC(O)C(CO)O2)cc1F` (centres undefined), for which the GI50 is above 100 µM in [1]; 0.00235 µM in assay [2]; 0.00231 µM in [3]; below 0.0119 µM in assay [4]; above 100 µM in assay [5]; 55.2 µM in [7]. Further, the results for the GI50 in [8], in [9] and in assay [10] were above 100 µM, 0.046 µM and above 100 µM, respectively. Further, the TGI in assay [1], in assay [2], in assay [3], in assay [4], in [5] and in assay [6] was above 100 µM throughout. In addition, the TGI in [7], in [8], in assay [9] and in assay [10] was above 100 µM each time.

For the compound `O=C1/C(=C/c2cccnc2)SC(=S)N1Cc1ccco1`, the TGI was above 43.5 µM in [1]; above 100 µM in assay [2]; 25.1 µM in assay [3]; 80.6 µM in assay [4]; above 31.5 µM in assay [5]; 92 µM in assay [6]. In addition, the TGI is above 22.1 µM in [7], 10.8 µM in assay [8], 70.6 µM in [9] and 5.54 µM in assay [10].

As to `COC(=O)c1cc(-c2ccc3ccccc3c2)[nH]c(=O)c1C#N`, the TGI in assay [1], in assay [2], in assay [3], in assay [4], in assay [5] and in [6] was above 100 µM throughout. The TGI in assay [7], in [8], in [9] and in assay [10] was above 100 µM throughout.

`C[C@@H](Nc1nc(N[C@H](C)C(F)(F)F)nc(-c2cccc(Cl)n2)n1)C(F)(F)F`: the GI50 was 60.2 µM in assay [1]; 50.6 µM in assay [2]; 36.1 µM in [3]; 24.9 µM in assay [4]; 51.4 µM in [5]; 35.6 µM in assay [6]. The GI50 in assay [7] is 26 µM; in [8], 39.9 µM; in assay [9] it was 29.9 µM; in assay [10] it was above 100 µM. For the same compound, the TGI in [1] was above 100 µM; in [2] it was above 100 µM; in assay [3] it was above 100 µM; in assay [4], 96.2 µM; in assay [5], above 100 µM; in [6] it was above 100 µM. Also, the TGI was above 100 µM in assay [7], above 100 µM in assay [8], 99.7 µM in assay [9] and above 100 µM in assay [10].

With `CN1CCN(CCCOc2cccc3nc(Nc4cc(Cl)cc(Cl)c4)ccc23)CC1`, the GI50 is 1.92 µM in assay [1]; 1.38 µM in assay [2]; 1.84 µM in assay [3]; 2.97 µM in [4]; 1.97 µM in assay [5]; 1.95 µM in assay [6]. Also, the GI50 is 2.5 µM in assay [7], 1.75 µM in assay [8], 1.78 µM in assay [9] and 1.68 µM in assay [10]. For the same compound, the TGI was 3.7 µM in [1]; 2.94 µM in assay [2]; 3.43 µM in [3]; 11.7 µM in [4]; 3.54 µM in assay [5]; 4.04 µM in assay [6]. Besides, the TGI in [7] turned out to be 7.07 µM; in assay [8], 3.17 µM; in assay [9], 3.51 µM; in assay [10], 3.2 µM.

Regarding `CC[C@@]1(O)C(=O)OCc2c1cc1n(c2=O)Cc2cc3cc(Cl)ccc3nc2-1`, the GI50 in assay [1] is 0.0305 µM and 0.0444 µM; in assay [2] it was 0.00364 µM; in assay [3], below 0.001 µM; in assay [5], 0.0389 µM and 0.0857 µM; in assay [6], 0.00345 µM; in [7], 0.445 µM. For the same compound, the GI50 in assay [8] was 2.58 µM and 1.87 µM; in assay [9], 0.00878 µM and 0.0517 µM; in [10], 0.089 µM. Moreover, the TGI in assay [1] was 0.818 µM and 0.564 µM; in assay [3], 0.0118 µM; in [4], 1.07 µM and 1.19 µM; in assay [5], 0.953 µM and 1.11 µM; in assay [6], 0.108 µM and 0.117 µM; in assay [8] it was above 100 µM. In addition, the TGI was 0.132 µM and 0.221 µM in assay [9]; 0.357 µM in [10].

Take `CCCCCC/C=C/C#CCCCCCCCC(=O)O`: the TGI in assay [1], in assay [2], in assay [3], in [4], in [5] and in assay [6] was above 100 µM in each case. The TGI in assay [7], in assay [8], in assay [9] and in [10] was above 100 µM each time.

For the compound `CNC(=O)c1cc(Oc2ccc3nc(NC(=O)Nc4ccc(CN5CCOCC5)c(C(F)(F)F)c4)sc3c2)ccn1`, the GI50 was 1.44 µM in assay [1]; 1.75 µM in assay [2]; 2.01 µM in assay [3]; 2.05 µM in assay [4]; 2.16 µM in assay [5]; 1.73 µM in [6]. Also, the GI50 in assay [7] was 2.55 µM; in assay [8], 4.45 µM; in assay [9], 1.9 µM; in assay [10], 1.83 µM. Besides, the TGI in assay [1] was 3.98 µM; in assay [2], 4.63 µM; in [3], 4.33 µM; in assay [4], 6.83 µM; in assay [5], 5.59 µM; in assay [6], 4.3 µM. Also, the TGI in [7] is 9.6 µM; in assay [8], 14.7 µM; in [9], 4.05 µM; in assay [10], 4.38 µM.

Consider `C[C@H]1CCC/C=C/C2CC(OC(=O)CN(C)C)CC2C(OC(=O)CN(C)C)/C=C/C(=O)O1` (some centres undefined), for which the GI50 in [1] is 0.171 µM; in [2], 0.31 µM; in assay [3], 1.09 µM; in assay [4] it was 0.38 µM; in assay [5], 0.342 µM; in [6], 0.133 µM. Also, the GI50 is 30.1 µM in assay [7], 0.318 µM in assay [8], 0.0508 µM in assay [9] and 0.408 µM in [10]. For the same compound, the TGI worked out at 0.371 µM in assay [1]; 1.53 µM in assay [2]; 31.2 µM in assay [3]; 7.69 µM in [4]; 27.5 µM in assay [5]; 0.44 µM in assay [6]. The TGI in assay [7] is above 100 µM; in assay [8], 17.9 µM; in assay [9], 0.282 µM; in [10], above 100 µM.

`Cc1cccc2c(C3=C(c4cn(C)c5ccccc45)C(=O)NC3=O)cn(C)c12`: the GI50 in assay [1] was above 17.8 µM; in assay [2], 9.03 µM; in assay [3] it was above 21.8 µM; in assay [4], above 19.1 µM; in [5] it was 24.8 µM; in [6], above 25 µM. Further, the GI50 in [7] was 2.83 µM; in assay [8], above 25 µM; in assay [9] it was above 25 µM; in assay [10], 1.24 µM. In addition, the TGI in [1], in [2], in assay [3], in [4], in assay [5] and in assay [6] was above 25 µM each time. Besides, the TGI in assay [7] was 17.3 µM; in assay [8], above 25 µM; in assay [9] it was above 25 µM; in [10], above 25 µM.

With `CCN(CC)CCNc1c2ccccc2nc2cccc([N+](=O)[O-])c12`, the GI50 was 0.013 µM in assay [1] and 0.022 µM in [5]. Moreover, the TGI in [1] is 0.0231 µM and 0.0287 µM; in [2], 0.0063 µM; in assay [3] it was 0.0186 µM; in assay [4] it was 0.0254 µM and 0.0721 µM; in assay [5], 0.0502 µM and 0.065 µM; in assay [6], 0.0553 µM. Moreover, the TGI in [7] is 0.039 µM; in [8], 0.0813 µM; in assay [9], 0.014 µM; in assay [10], 0.00323 µM.

For the compound `C[C@@H]1CC[C@H]2[C@@H](C)C(O)O[C@@H]3O[C@]4(C)CC[C@@H]1[C@]32OO4` (some centres undefined), the GI50 in [1] was 1.54 µM; in assay [2], 1.66 µM; in assay [3], 1.33 µM; in assay [4], 0.758 µM; in assay [5], 0.748 µM; in [6], 1.56 µM. The GI50 in assay [7] is 1.33 µM; in assay [8], 0.854 µM; in assay [9], 2.89 µM; in assay [10] it was 0.361 µM. Also, the TGI in assay [1] is above 66.1 µM; in assay [2], 20.4 µM; in [3], 15 µM; in assay [4], above 47.2 µM; in assay [5], above 100 µM; in assay [6], 40.9 µM. The TGI in assay [7] was 42.2 µM; in [8] it was 9.64 µM; in assay [9] it was above 96.6 µM; in [10] it was 10.8 µM.

`COc1ccc(-c2nn(-c3cccc(Cl)c3)cc2/C=C2\NC(=S)N(c3ccc(Cl)cc3)C2=O)cc1`: the GI50 in assay [1] is 5.03 µM; in assay [2] it was 5.6 µM; in assay [3], 4.7 µM; in assay [4] it was 4.79 µM; in assay [5], 3.95 µM; in assay [6] it was 4.03 µM. For the same compound, the GI50 is 4.14 µM in assay [7], 6.37 µM in assay [8], 3.51 µM in assay [9] and 7.38 µM in assay [10]. The TGI in assay [1] was 11.3 µM; in assay [2], above 25 µM; in assay [3] it was 18.4 µM; in assay [4], 13.2 µM; in assay [5] it was 8.55 µM; in [6], 9.36 µM. In addition, the TGI is 24.1 µM in assay [7], 16 µM in [8], 8.56 µM in [9] and above 25 µM in [10].

For the compound `CCOC(=O)C1(CC(=O)O)CCCC1=O` (centres undefined), the TGI in assay [1], in [2], in assay [3], in [4], in [5] and in assay [6] was above 100 µM in each case. Further, the TGI in assay [7], in assay [8], in assay [9] and in [10] was above 100 µM each time.

On to `Oc1ccc(NC(=S)Nc2ccccc2)cc1`, for which the GI50 in assay [1], in assay [2], in assay [3], in assay [4], in [5] and in assay [6] was above 100 µM in each case. Moreover, the GI50 in [7], in assay [8], in assay [9] and in assay [10] was above 100 µM in each case. Also, the TGI in assay [1], in assay [2], in assay [3], in assay [4], in assay [5] and in [6] was above 100 µM in each case. Further, the TGI in [7], in assay [8], in assay [9] and in [10] was above 100 µM throughout.

Regarding `O=C(NC1CCN(Cc2ccccc2)CC1)c1cc(-c2cccnc2)nc2ccc(Cl)cc12`, the GI50 is 7.92 µM in assay [1]; 4.78 µM in assay [2]; 4.24 µM in [3]; 3.24 µM in [4]; above 100 µM in assay [5]; 9.72 µM in assay [6]. Moreover, the results for the GI50 in assay [7] and in assay [10] were 9.9 µM and 9.96 µM, respectively. Besides, the TGI in [1] is above 100 µM; in [2] it was above 100 µM; in [3], 21.7 µM; in assay [4] it was 19.1 µM; in assay [5] it was above 100 µM; in [6], 50.3 µM. Besides, the TGI in assay [7] is 39.4 µM; in [9], 5.49 µM; in [10], above 100 µM.

Turning to `C=C1CCC2CC1C(C(=O)c1c[nH]c3ccccc13)=NC2(C)C` (centres undefined), the TGI in assay [1], in assay [2], in [3], in assay [4], in assay [5] and in [6] was above 100 µM throughout. For the same compound, the TGI in assay [7], in [9] and in [10] was above 100 µM in each case.

Source of the values: PubChem BioAssay (NCI).
